In US9408828B2, “(+)-3′-angeloyloxy-4′-keto-3′,4′-dihydroseselin for treating inflammation” (Hong Kong Baptist University, priority 2014, dated 2016):

System: NF-κB p65
Assay: Immunofluorescence staining of NF-κB nuclear translocation
Format: cell-based, murine
Conditions: 5-20 μg/mL pretreatment 2 hours, LPS 1 μg/mL 20 hours
Description: Data are derived from three independent experiments. Original magnification, 40×.
Raw-Blue cells are cultured (20×10^4 cells/well) on glass coverslips and incubated for 24 hours. Cells are pretreated with various concentrations (5-20 μg/mL) of Pd-Ib for 2 hours. Then treated with LPS (1 μg/mL) for 20 hours. Subsequently, the coverslips are rinsed twice with PBS, and cells are fixed in 4% paraformaldehyde (PFA) in PBS at room temperature for 15 minutes. Cellular and nuclear membranes of the macrophages are permeabilized by treatment with 3% Triton X-100 in PBS for 15 minutes. After being blocked with 3% bovine serum albumin (BSA) in PBS for 1 hour, the cells is incubated with primary antibody in 3% BSA/PBS (1:500 dilution) at 4° C. overnight. After washing with PBS, the cells are incubated with the red-conjugated secondary antibody (1:500 dilution) in 3% BSA/PBS at room temperature for 1 hour and finally washed again for three time with PBS. Then, counter-staining is performed with DAPI (1:1,000 dilution) in 3% BSA/PBS nucleus with for 10 minutes. The cells are washed for three times with PBS, and then anti-fade mounting medium is added. Samples are observed under a fluorescence microscope.

`C/C=C(\C)C(=O)OC1C(=O)c2c(ccc3ccc(=O)oc23)OC1(C)C` (single isomer, unassigned; (+)) [Pd-Ib, (+)-3′-Angeloyloxy-4′-keto-3′,4′-dihydroseselin] was tested, and the p65 nuclear translocation was “significantly inhibits the p65 nuclear translocation”.
